Reference: ChEMBL document CHEMBL1909046, “DrugMatrix in vitro pharmacology data”

target: Vasopressin V1a receptor (Homo sapiens, UniProt P37288); experiment: not given; assay type: cell membranes, Membrane; conditions: hek293; also: in other assays of this panel Not Active means under 50% inhibition at 10 µM
Sequence (P37288 whole entry): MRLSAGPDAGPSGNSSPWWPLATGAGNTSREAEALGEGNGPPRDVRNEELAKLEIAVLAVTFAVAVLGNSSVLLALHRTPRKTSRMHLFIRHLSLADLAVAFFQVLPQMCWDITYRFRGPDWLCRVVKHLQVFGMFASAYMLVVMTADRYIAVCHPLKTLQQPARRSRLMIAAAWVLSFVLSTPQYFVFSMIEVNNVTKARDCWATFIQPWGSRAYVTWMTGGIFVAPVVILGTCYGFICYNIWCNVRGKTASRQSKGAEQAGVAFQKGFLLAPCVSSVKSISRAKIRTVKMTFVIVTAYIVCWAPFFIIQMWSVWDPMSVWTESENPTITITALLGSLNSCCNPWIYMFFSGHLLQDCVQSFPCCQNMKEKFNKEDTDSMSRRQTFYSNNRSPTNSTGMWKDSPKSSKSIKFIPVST

Row | Structure (SMILES) | IC50
1 | Cc1cc(NS(=O)(=O)c2ccc(N)cc2)no1 [SULFAMETHOXAZOLE] | Not Active
2 | CSc1ccc2c(c1)N(CCC1CCCCN1C)c1ccccc1S2 (stereo unspecified) [THIORIDAZINE] | Not Active
3 | COc1cccc(C2(O)CCCCC2CN(C)C)c1 (stereo unspecified) [TRAMADOL] | Not Active
4 | O=C(CCCN1CCC(O)(c2ccc(Cl)cc2)CC1)c1ccc(F)cc1 [HALOPERIDOL] | Not Active
5 | COC(=O)C1=C(C)NC(C)=C(C(=O)OC)C1c1ccccc1[N+](=O)[O-] [NIFEDIPINE] | Not Active

target: T1, C-C chemokine receptor type 4 (Homo sapiens, UniProt P51679); experiment: not given; assay type: cell membranes, Membrane; conditions: chem-1; also: in other assays of this panel Not Active means under 50% inhibition at 10 µM
T1 sequence (P51679 whole entry): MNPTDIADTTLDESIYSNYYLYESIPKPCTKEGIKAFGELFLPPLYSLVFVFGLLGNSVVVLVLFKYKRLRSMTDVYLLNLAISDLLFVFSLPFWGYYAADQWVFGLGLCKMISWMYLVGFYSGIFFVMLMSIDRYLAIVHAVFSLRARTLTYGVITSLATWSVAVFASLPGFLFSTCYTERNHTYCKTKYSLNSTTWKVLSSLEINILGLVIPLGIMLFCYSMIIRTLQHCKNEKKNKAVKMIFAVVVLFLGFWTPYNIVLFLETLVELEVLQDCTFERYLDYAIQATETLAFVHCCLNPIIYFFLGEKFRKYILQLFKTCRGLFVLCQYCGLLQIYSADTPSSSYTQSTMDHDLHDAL

Row | Structure (SMILES) | IC50
6 | Cc1cc(NS(=O)(=O)c2ccc(N)cc2)no1 [SULFAMETHOXAZOLE] | Not Active
7 | CSc1ccc2c(c1)N(CCC1CCCCN1C)c1ccccc1S2 (stereo unspecified) [THIORIDAZINE] | Not Active
8 | COc1cccc(C2(O)CCCCC2CN(C)C)c1 (stereo unspecified) [TRAMADOL] | Not Active
9 | O=C(CCCN1CCC(O)(c2ccc(Cl)cc2)CC1)c1ccc(F)cc1 [HALOPERIDOL] | Not Active
10 | COC(=O)C1=C(C)NC(C)=C(C(=O)OC)C1c1ccccc1[N+](=O)[O-] [NIFEDIPINE] | Not Active

target: T2, C-X-C chemokine receptor type 2 (Homo sapiens, UniProt P25025); experiment: not given; assay type: cell membranes, Membrane; conditions: cho-k1; also: in other assays of this panel Not Active means under 50% inhibition at 10 µM
T2 sequence (P25025 whole entry): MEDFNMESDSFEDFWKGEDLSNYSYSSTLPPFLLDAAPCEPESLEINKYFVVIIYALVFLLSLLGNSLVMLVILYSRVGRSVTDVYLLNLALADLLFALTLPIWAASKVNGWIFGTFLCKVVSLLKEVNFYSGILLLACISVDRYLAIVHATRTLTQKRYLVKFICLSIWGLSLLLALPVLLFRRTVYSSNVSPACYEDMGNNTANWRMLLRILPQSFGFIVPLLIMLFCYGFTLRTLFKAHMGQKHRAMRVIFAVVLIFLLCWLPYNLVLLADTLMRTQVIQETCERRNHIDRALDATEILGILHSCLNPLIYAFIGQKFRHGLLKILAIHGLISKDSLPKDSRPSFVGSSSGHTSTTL

Row | Structure (SMILES) | IC50
11 | Cc1cc(NS(=O)(=O)c2ccc(N)cc2)no1 [SULFAMETHOXAZOLE] | Not Active
12 | CSc1ccc2c(c1)N(CCC1CCCCN1C)c1ccccc1S2 (stereo unspecified) [THIORIDAZINE] | Not Active
13 | COc1cccc(C2(O)CCCCC2CN(C)C)c1 (stereo unspecified) [TRAMADOL] | Not Active
14 | O=C(CCCN1CCC(O)(c2ccc(Cl)cc2)CC1)c1ccc(F)cc1 [HALOPERIDOL] | Not Active
15 | COC(=O)C1=C(C)NC(C)=C(C(=O)OC)C1c1ccccc1[N+](=O)[O-] [NIFEDIPINE] | Not Active

system: not listed separately; experiment: DRUGMATRIX: Glutamate, NMDA, Agonism radioligand binding (ligand: [3H] CGP-39653); assay type: cell membranes, Rattus norvegicus, Wistar, Cerebral cortex, Membrane; conditions: Not Active = under 50% inhibition at 10 µM

Row | Structure (SMILES) | IC50 | Ki
16 | Cc1cc(NS(=O)(=O)c2ccc(N)cc2)no1 [SULFAMETHOXAZOLE] | Not Active | Not Active
17 | COC(=O)C1=C(C)NC(C)=C(C(=O)OC)C1c1ccccc1[N+](=O)[O-] [NIFEDIPINE] | Not Active | Not Active

system: not listed separately; experiment: DRUGMATRIX: Glutamate, NMDA, Phencyclidine radioligand binding (ligand: [3H] TCP); assay type: cell membranes, Rattus norvegicus, Wistar, Cerebral cortex, Membrane; conditions: Not Active = under 50% inhibition at 10 µM

Row | Structure (SMILES) | IC50 | Ki
18 | Cc1cc(NS(=O)(=O)c2ccc(N)cc2)no1 [SULFAMETHOXAZOLE] | Not Active | Not Active
19 | COC(=O)C1=C(C)NC(C)=C(C(=O)OC)C1c1ccccc1[N+](=O)[O-] [NIFEDIPINE] | Not Active | Not Active

target: T3, Leukotriene C4 synthase (Cavia porcellus, UniProt A6XA80); experiment: biochemical; assay type: tissue-based, Lung; conditions: not given;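 also: enzyme inhibition assay of leukotriene C4 synthase, using LTA4 as the substrate; in other assays of this panel Not Active means under 50% inhibition at 10 µM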
T3 sequence (A6XA80 whole entry): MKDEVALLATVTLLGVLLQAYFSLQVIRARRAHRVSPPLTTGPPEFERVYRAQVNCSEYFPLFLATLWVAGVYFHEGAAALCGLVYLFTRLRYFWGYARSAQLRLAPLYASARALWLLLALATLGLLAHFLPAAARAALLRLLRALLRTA

Row | Structure (SMILES) | IC50
20 | Cc1cc(NS(=O)(=O)c2ccc(N)cc2)no1 [SULFAMETHOXAZOLE] | Not Active
21 | CSc1ccc2c(c1)N(CCC1CCCCN1C)c1ccccc1S2 (stereo unspecified) [THIORIDAZINE] | Not Active
22 | COc1cccc(C2(O)CCCCC2CN(C)C)c1 (stereo unspecified) [TRAMADOL] | Not Active
23 | O=C(CCCN1CCC(O)(c2ccc(Cl)cc2)CC1)c1ccc(F)cc1 [HALOPERIDOL] | Not Active
24 | COC(=O)C1=C(C)NC(C)=C(C(=O)OC)C1c1ccccc1[N+](=O)[O-] [NIFEDIPINE] | Not Active

target: T4, Cysteinyl leukotriene receptor 1 (Homo sapiens, UniProt Q9Y271); experiment: not given; assay type: cell membranes, CHO-K1, Membrane; conditions: cho-k1; also: in other assays of this panel Not Active means under 50% inhibition at 10 µM
T4 sequence (Q9Y271 whole entry): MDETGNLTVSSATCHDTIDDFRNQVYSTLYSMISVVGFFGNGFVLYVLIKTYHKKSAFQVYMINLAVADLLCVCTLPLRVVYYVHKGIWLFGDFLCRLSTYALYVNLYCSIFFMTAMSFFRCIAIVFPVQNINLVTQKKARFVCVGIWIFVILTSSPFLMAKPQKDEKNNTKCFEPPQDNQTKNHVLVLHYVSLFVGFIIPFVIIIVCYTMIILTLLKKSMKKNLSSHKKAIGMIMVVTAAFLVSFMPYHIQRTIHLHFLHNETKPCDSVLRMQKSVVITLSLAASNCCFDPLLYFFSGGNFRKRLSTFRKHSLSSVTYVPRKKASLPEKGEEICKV

Row | Structure (SMILES) | IC50
25 | Cc1cc(NS(=O)(=O)c2ccc(N)cc2)no1 [SULFAMETHOXAZOLE] | Not Active
26 | CSc1ccc2c(c1)N(CCC1CCCCN1C)c1ccccc1S2 (stereo unspecified) [THIORIDAZINE] | Not Active
27 | COc1cccc(C2(O)CCCCC2CN(C)C)c1 (stereo unspecified) [TRAMADOL] | Not Active
28 | O=C(CCCN1CCC(O)(c2ccc(Cl)cc2)CC1)c1ccc(F)cc1 [HALOPERIDOL] | Not Active
29 | COC(=O)C1=C(C)NC(C)=C(C(=O)OC)C1c1ccccc1[N+](=O)[O-] [NIFEDIPINE] | Not Active

target: T5, Neuropeptide Y receptor type 1 (Homo sapiens, UniProt P25929); experiment: not given; assay type: cell membranes, Membrane; conditions: sk-n-mc; also: in other assays of this panel Not Active means under 50% inhibition at 10 µM
T5 sequence (P25929 whole entry): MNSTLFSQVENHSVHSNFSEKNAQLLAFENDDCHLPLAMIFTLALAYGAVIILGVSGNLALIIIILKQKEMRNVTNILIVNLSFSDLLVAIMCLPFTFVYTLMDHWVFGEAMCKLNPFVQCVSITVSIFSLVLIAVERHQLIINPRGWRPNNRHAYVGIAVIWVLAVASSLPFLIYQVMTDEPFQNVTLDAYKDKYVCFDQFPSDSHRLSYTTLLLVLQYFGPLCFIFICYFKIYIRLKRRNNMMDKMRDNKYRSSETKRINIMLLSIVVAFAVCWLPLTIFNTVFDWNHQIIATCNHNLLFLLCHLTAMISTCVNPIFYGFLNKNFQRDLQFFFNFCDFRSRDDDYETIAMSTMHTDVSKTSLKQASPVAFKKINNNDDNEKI

Row | Structure (SMILES) | IC50
30 | Cc1cc(NS(=O)(=O)c2ccc(N)cc2)no1 [SULFAMETHOXAZOLE] | Not Active
31 | CSc1ccc2c(c1)N(CCC1CCCCN1C)c1ccccc1S2 (stereo unspecified) [THIORIDAZINE] | Not Active
32 | COc1cccc(C2(O)CCCCC2CN(C)C)c1 (stereo unspecified) [TRAMADOL] | Not Active
33 | O=C(CCCN1CCC(O)(c2ccc(Cl)cc2)CC1)c1ccc(F)cc1 [HALOPERIDOL] | Not Active
34 | COC(=O)C1=C(C)NC(C)=C(C(=O)OC)C1c1ccccc1[N+](=O)[O-] [NIFEDIPINE] | Not Active

system: not listed separately; experiment: DRUGMATRIX: Phorbol Ester radioligand binding (ligand: [3H] PDBu); assay type: cell membranes, Mus musculus, ICR, Brain, Membrane; conditions: Not Active = under 50% inhibition at 10 µM

Row | Structure (SMILES) | IC50 | Ki
35 | Cc1cc(NS(=O)(=O)c2ccc(N)cc2)no1 [SULFAMETHOXAZOLE] | Not Active | Not Active
36 | COC(=O)C1=C(C)NC(C)=C(C(=O)OC)C1c1ccccc1[N+](=O)[O-] [NIFEDIPINE] | Not Active | Not Active

target: T6, Interstitial collagenase (Homo sapiens, UniProt P03956); experiment: not given; assay type: tissue-based, Rheumatoid synovial fibroblasts; conditions: not given
T6 sequence (P03956 whole entry): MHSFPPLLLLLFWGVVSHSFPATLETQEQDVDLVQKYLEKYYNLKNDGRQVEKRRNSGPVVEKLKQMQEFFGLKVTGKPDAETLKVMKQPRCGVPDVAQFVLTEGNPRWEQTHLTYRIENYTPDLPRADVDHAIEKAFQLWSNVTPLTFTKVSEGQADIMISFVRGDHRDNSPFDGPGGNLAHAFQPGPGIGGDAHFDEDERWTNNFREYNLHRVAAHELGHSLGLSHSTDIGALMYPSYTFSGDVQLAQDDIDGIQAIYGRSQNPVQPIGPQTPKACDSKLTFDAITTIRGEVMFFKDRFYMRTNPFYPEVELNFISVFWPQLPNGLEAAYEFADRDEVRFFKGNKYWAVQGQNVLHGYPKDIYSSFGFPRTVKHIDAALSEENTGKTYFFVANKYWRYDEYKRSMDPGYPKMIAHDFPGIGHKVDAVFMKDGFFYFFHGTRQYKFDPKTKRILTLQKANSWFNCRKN

Row | Structure (SMILES) | IC50
37 | Cc1cc(NS(=O)(=O)c2ccc(N)cc2)no1 [SULFAMETHOXAZOLE] | Not Active
38 | CSc1ccc2c(c1)N(CCC1CCCCN1C)c1ccccc1S2 (stereo unspecified) [THIORIDAZINE] | Not Active
39 | COc1cccc(C2(O)CCCCC2CN(C)C)c1 (stereo unspecified) [TRAMADOL] | Not Active
40 | O=C(CCCN1CCC(O)(c2ccc(Cl)cc2)CC1)c1ccc(F)cc1 [HALOPERIDOL] | Not Active
41 | COC(=O)C1=C(C)NC(C)=C(C(=O)OC)C1c1ccccc1[N+](=O)[O-] [NIFEDIPINE] | Not Active

target: Mitogen-activated protein kinase 1 (Homo sapiens, UniProt P28482); experiment: DRUGMATRIX: Protein Serine/Threonine Kinase, ERK2 enzyme inhibition (substrate: Myelin Basic Protein); parameters: species or system Escherichia coli; conditions: Not Active = under 50% inhibition at 10 µM
Sequence (P28482 whole entry): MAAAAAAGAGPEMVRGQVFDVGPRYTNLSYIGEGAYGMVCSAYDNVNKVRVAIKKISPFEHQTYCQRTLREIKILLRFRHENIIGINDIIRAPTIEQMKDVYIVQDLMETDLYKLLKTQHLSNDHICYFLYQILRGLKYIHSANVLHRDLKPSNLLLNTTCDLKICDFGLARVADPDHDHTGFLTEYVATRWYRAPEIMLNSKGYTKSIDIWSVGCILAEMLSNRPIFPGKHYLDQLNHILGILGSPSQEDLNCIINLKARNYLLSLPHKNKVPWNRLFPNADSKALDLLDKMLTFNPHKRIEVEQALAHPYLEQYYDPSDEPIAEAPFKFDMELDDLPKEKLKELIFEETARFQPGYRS

Row | Structure (SMILES) | IC50
42 | Cc1cc(NS(=O)(=O)c2ccc(N)cc2)no1 [SULFAMETHOXAZOLE] | Not Active
43 | CSc1ccc2c(c1)N(CCC1CCCCN1C)c1ccccc1S2 (stereo unspecified) [THIORIDAZINE] | Not Active
44 | COc1cccc(C2(O)CCCCC2CN(C)C)c1 (stereo unspecified) [TRAMADOL] | Not Active
45 | O=C(CCCN1CCC(O)(c2ccc(Cl)cc2)CC1)c1ccc(F)cc1 [HALOPERIDOL] | Not Active
46 | COC(=O)C1=C(C)NC(C)=C(C(=O)OC)C1c1ccccc1[N+](=O)[O-] [NIFEDIPINE] | Not Active

target: T7, Adenosine receptor A3 (Homo sapiens, UniProt P0DMS8); experiment: not given; assay type: cell membranes, CHO-K1, Membrane; conditions: cho-k1
T7 sequence (P0DMS8 whole entry): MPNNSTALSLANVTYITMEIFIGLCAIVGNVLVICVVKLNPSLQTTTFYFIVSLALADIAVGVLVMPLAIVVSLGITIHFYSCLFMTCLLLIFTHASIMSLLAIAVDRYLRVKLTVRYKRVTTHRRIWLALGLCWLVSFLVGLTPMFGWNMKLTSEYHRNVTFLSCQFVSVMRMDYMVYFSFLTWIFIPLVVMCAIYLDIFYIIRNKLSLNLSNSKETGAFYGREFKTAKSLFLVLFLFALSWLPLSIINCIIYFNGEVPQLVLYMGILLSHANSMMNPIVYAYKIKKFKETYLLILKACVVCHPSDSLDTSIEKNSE

Row | Structure (SMILES) | IC50
47 | Cc1cc(NS(=O)(=O)c2ccc(N)cc2)no1 [SULFAMETHOXAZOLE] | Not Active
48 | CSc1ccc2c(c1)N(CCC1CCCCN1C)c1ccccc1S2 (stereo unspecified) [THIORIDAZINE] | Not Active
49 | COc1cccc(C2(O)CCCCC2CN(C)C)c1 (stereo unspecified) [TRAMADOL] | Not Active
50 | O=C(CCCN1CCC(O)(c2ccc(Cl)cc2)CC1)c1ccc(F)cc1 [HALOPERIDOL] | Not Active
